Test results taken from publication PMC9206137, “Synergistic anti-SARS-CoV-2 activity of repurposed anti-parasitic drug combinations” (BMC Pharmacology & Toxicology, 2022).
Values joined by “and” are separate entries in the source; they are usually repeats but may differ in a detail not shown here. Equal values may be shown once. Read-outs that look alike come from different tables or passages of the source.

What was measured:
[1] = calculated based on lung: plasma ratio in cattle; cited from earlier work
dengue virus = details: read-out: IC50 against dengue virus, cited from earlier work
Calu-3 cells = test: Cell viability assay (MTT) in Calu-3 cells; details: for %cell viability / cell viability: replicates; for cell viability: Calu-3 cells
Protocol: (§1) Subsequently, the cell viability was assessed using MTT dyes (Invitrogen) in duplicate (Supplementary file 1). The procedure was described elsewhere. The viability of drug-treated cells was expressed as percent cell viability relative to 0.5% DMSO-treated cells.

SARS-CoV-2 [2] = test: microbe, parasite or virus in culture; assay type: cell-based; details: for %inhibition (plaque assay) / % inhibition: replicates; for % inhibition: Calu-3 cells
SARS-CoV-2 [3] = details: cited from earlier work
SARS-CoV-2 [4] = test: Antiviral activity against SARS-CoV-2 in Vero E6 cells, plaque assay; assay type: cell-based; details: Vero E6; for %inhibition (plaque assay): replicates
[5] = humans; oral 200 μg/kg; mean ± SD; cited from earlier work
[6] = tested on: plasma nonstructural protein 1; details: dengue patients; cited from earlier work
Vero E6 cells = test: Cell viability assay (MTT) in Vero E6 cells; details: for %cell viability / cell viability: replicates; for cell viability: Vero E6 cells
Protocol: as §1

SARS-CoV-2 [7] = test: Antiviral activity against SARS-CoV-2 in Vero E6 cells, one-step qRT-PCR (single drugs, two-drug combinations, synergy analysis); details: for %inhibition (qRT-PCR) / % inhibition: replicates; for % inhibition: Vero E6 cells

ivermectin
predicted maximum lung concentration [1]: 0.0873 µM | IC50 (dengue virus; Huh-7 cells): ~4.64 µM | IC50 (dengue virus; immortalized hepatocyte-like cell line): ~5.33 µM | CC50 (Calu-3 cells; Calu-3, MTT, 48 hours): 3.1 µM | %cell viability (Calu-3 cells; Calu-3, ivermectin 0.048828 uM): 101.77% and 102.10% | %cell viability (Calu-3 cells; Calu-3, ivermectin 0.195313 uM): 103.33% | %cell viability (Calu-3 cells; Calu-3, ivermectin 0.390625 uM): 106.67% and 102.92% | %cell viability (Calu-3 cells; Calu-3, ivermectin 0.78125 uM): 103.89% | %cell viability (Calu-3 cells; Calu-3, ivermectin 1.5625 uM): 100.11% and 106.94% | %cell viability (Calu-3 cells; Calu-3, ivermectin 3.125 uM): 41.94% and 53.47% | %cell viability (Calu-3 cells; Calu-3, ivermectin 6.25 uM): 6.67% | %cell viability (Calu-3 cells; Calu-3, ivermectin 12.5 uM): 6.53% and 6.39% | cell viability (Calu-3 cells; Ivermectin 0.05 uM alone): 100.07 and 99.88 | cell viability (Calu-3 cells; Ivermectin 0.10 uM alone): 99.91 and 100.11 | cell viability (Calu-3 cells; Ivermectin 0.20 uM alone): 101.94 and 95.31 | cell viability (Calu-3 cells; Ivermectin 0.40 uM alone): 94.38 and 100.45 | IC50 (SARS-CoV-2 [2]; Calu-3, 500 TCID50, plaque assay, single drug): 0.2 µM | %inhibition (plaque assay) (SARS-CoV-2 [2]; Calu-3, ivermectin 0.048828 uM): 7.34% and 7.50% and 6.92% | %inhibition (plaque assay) (SARS-CoV-2 [2]; Calu-3, ivermectin 0.195313 uM): 43.75% and 44.69% and 42.02% | %inhibition (plaque assay) (SARS-CoV-2 [2]; Calu-3, ivermectin 0.390625 uM): 55.86% and 56.30% and 55.45% | %inhibition (plaque assay) (SARS-CoV-2 [2]; Calu-3, ivermectin 0.78125 uM): 63.14% and 86.03% and 74.50% | %inhibition (plaque assay) (SARS-CoV-2 [2]; Calu-3, ivermectin 1.5625 uM): 90.72% and 80.25% and 82.92% | %inhibition (plaque assay) (SARS-CoV-2 [2]; Calu-3, ivermectin 3.125 uM): 98.34% and 97.94% and 90.53% | % inhibition (SARS-CoV-2 [2]; Ivermectin 0.05 uM alone): 26.67% (2×) and 33.33% | % inhibition (SARS-CoV-2 [2]; Ivermectin 0.10 uM alone): 33.33% and 26.67% and 40.00% | % inhibition (SARS-CoV-2 [2]; Ivermectin 0.20 uM alone): 40.00% and 66.67% and 53.33% | % inhibition (SARS-CoV-2 [2]; Ivermectin 0.40 uM alone): 53.33% and 73.33% and 66.67% | reduction in SARS-CoV-2 replication in vitro (SARS-CoV-2 [3]): up to 5000 fold | IC50 (SARS-CoV-2 [4]; MOI 0.01, 48 hours, single drug): 1.23 µM | %inhibition (plaque assay) (SARS-CoV-2 [4]; ivermectin 0.15625 uM): 7.34% and 7.50% and 7.15% | %inhibition (plaque assay) (SARS-CoV-2 [4]; ivermectin 0.3125 uM): 29.78% and 21.00% and 25.31% | %inhibition (plaque assay) (SARS-CoV-2 [4]; ivermectin 0.625 uM): 30.26% (2×) and 32.64% | %inhibition (plaque assay) (SARS-CoV-2 [4]; ivermectin 1.25 uM): 52.64% and 56.27% and 48.59% | %inhibition (plaque assay) (SARS-CoV-2 [4]; ivermectin 2.5 uM): 63.02% and 62.70% and 66.77% | %inhibition (plaque assay) (SARS-CoV-2 [4]; ivermectin 5 uM): 78.39% and 83.51% and 83.02% | maximum plasma concentration [5]: 0.049 ± 0.02 µM | level of plasma nonstructural protein 1 [6]: reduce | CC50 (Vero E6 cells; Vero E6, MTT, 48 hours): 10.6 µM | %cell viability (Vero E6 cells; Vero E6, ivermectin 0.15625 uM): 102.24% | %cell viability (Vero E6 cells; Vero E6, ivermectin 0.3125 uM): 100.47% and 100.17% | %cell viability (Vero E6 cells; Vero E6, ivermectin 0.625 uM): 102.19% | %cell viability (Vero E6 cells; Vero E6, ivermectin 1.25 uM): 100.11% and 101.75% | %cell viability (Vero E6 cells; Vero E6, ivermectin 2.5 uM): 99.32% | %cell viability (Vero E6 cells; Vero E6, ivermectin 5 uM): 83.87% and 88.89% | %cell viability (Vero E6 cells; Vero E6, ivermectin 10 uM): 55.14% and 53.62% and 46.86% | %cell viability (Vero E6 cells; Vero E6, ivermectin 20 uM): 21.86% and 15.62% and 14.14% | %cell viability (Vero E6 cells; Vero E6, ivermectin 40 uM): 12.31% and 10.14% and 11.10% | cell viability (Vero E6 cells; Ivermectin 0.3 uM alone): 100.47 and 100.17 | cell viability (Vero E6 cells; Ivermectin 0.6 uM alone): 102.19 | cell viability (Vero E6 cells; Ivermectin 1.2 uM alone): 100.11 and 101.75 | cell viability (Vero E6 cells; Ivermectin 2.4 uM alone): 99.32 | %inhibition (qRT-PCR) (SARS-CoV-2 [7]; Vero E6, ivermectin 0.15625 uM): 20.77% and 18.77% and 17.59% | %inhibition (qRT-PCR) (SARS-CoV-2 [7]; Vero E6, ivermectin 0.3125 uM): 22.09% and 7.36% and 10.53% | %inhibition (qRT-PCR) (SARS-CoV-2 [7]; Vero E6, ivermectin 0.625 uM): 17.18% and 18.46% and 16.20% | %inhibition (qRT-PCR) (SARS-CoV-2 [7]; Vero E6, ivermectin 1.25 uM): 48.83% and 48.22% and 45.15% | %inhibition (qRT-PCR) (SARS-CoV-2 [7]; Vero E6, ivermectin 2.5 uM): 68.53% and 77.48% and 81.10% | %inhibition (qRT-PCR) (SARS-CoV-2 [7]; Vero E6, ivermectin 5 uM): 80.18% and 78.28% and 78.87% | % inhibition (SARS-CoV-2 [7]; Ivermectin 0.3 uM alone): 24.74% and 21.54% and 19.89% | % inhibition (SARS-CoV-2 [7]; Ivermectin 0.6 uM alone): 40.13% and 29.29% and 31.22% | % inhibition (SARS-CoV-2 [7]; Ivermectin 1.2 uM alone): 46.41% and 46.78% and 47.88% | % inhibition (SARS-CoV-2 [7]; Ivermectin 2.4 uM alone): 68.57% and 80.79% and 75.01% | IC50 (SARS-CoV-2 [7]; read-out: IC50 (μM) qRT-PCR, Vero E6, MOI 0.01, 48 hours, single drug): 1.27 µM
